Measurements as given in patent US20170049688A1, “Herbal Combinations For Treating Psoriasis” (Sirbal Ltd., priority 2015, published 2017).
Like-named read-outs stand apart in the source and are kept apart here.

Key:
[1] = tested on: central stimulation in mice and rats; settings: oral administration; cited from earlier work
[2] = cited from earlier work
[3] = cited from earlier work; remark: listed apart in the source
[4] = tested on: hemolytic plaque forming cells in the spleens of mice; settings: cited from earlier work
thymidylate synthase = settings: colon cancer cells; cited from earlier work
thymidine kinase = settings: colon cancer cells; cited from earlier work
HT29 colon cancer cells = assay: Viability of HT29 tumor cells (PI staining); type: cell-based; settings: 24-hour exposure
Procedure: (§1) In another example, the effect of CXCR4 antagonists on the survival of NB4, HL60, Jurkat leukemic cells and HT29 colon cancer and prostate tumor cells was examined.
(§2) Following the incubation, the cells were stained with propidium iodide (PI) (Sigma, St. Louis, Mo.) and percent of viable PI-negative cells in culture was determined by FACScalibur analysis (Becton Dickinson Immunocytometry Systems), using CellQuest software.
as §2

[5] = tested on: NB4, HL60, Jurkat leukemic cells; assay: Viability of leukemic cells (PI staining, FACS); type: cell-based, human; settings: 24 hours
Procedure: as §1, §2, §2

mice = settings: cited from earlier work
murine melanoma = settings: 5 mg/kg; cited from earlier work
[6] = tested on: mammary carcinoma of mice; settings: intraperitoneal, 75 mg/kg; cited from earlier work
[7] = cited from earlier work; remark: listed apart in the source

Compound: O=C(/C=C/c1ccc(O)c(O)c1)O[C@@H]1C[C@](O)(C(=O)O)C[C@@H](O)[C@H]1O [chlorogenic acid]
- potency of central stimulation relative to caffeine [1]: 1/6

Compound: COc1ccc(/C=C/c2cc(O)cc(O[C@@H]3O[C@H](CO)[C@@H](O)[C@H](O)[C@H]3O)c2)cc1O [Rhapontin]
- half life [2]: about 23.5 minutes

Compound: O=C(O)c1cc(O)c2c(c1)C(=O)c1cccc(O[C@@H]3O[C@H](CO)[C@@H](O)[C@H](O)[C@H]3O)c1C2=O [Rhein-8-glucoside]
- ED50 (oral purgative) [3]: 20.0 mg/kg

Compound: COc1cc(C(=O)O)ccc1O [Vanillic acid]
- half life [2]: about 10.552 hours

Compound: jionoside B
- suppression of hemolytic plaque forming cells ([4]; oral dose of 100 mg/kg): 36%

Compound: Cc1ccc(C(C)C)cc1O [Carvacrol]
- half life [2]: about 1.29 hours

Compound: O=C1c2cc(CO)cc(O)c2C(=O)c2c(OC3OC(CO)C(O)C(O)C3O)cccc21 (centres unmarked) [Aloe-emodin-8-glycoside]
- ED50 (oral purgative) [3]: 71.6 mg/kg

Compound: O=c1cc(-c2ccc(O)c(O)c2)oc2cc(O)cc(O)c12 [Luteolin]
- half life [2]: about 1.2 hours

Compound: O=C(O)c1cc(O)c2c(c1)C(=O)c1cccc(O)c1C2=O [Rhein]
- half-life [2]: about 205 min

Compound: COc1cc(O)c2c(c1)C(=O)c1cc(C)cc(O)c1C2=O [Physcion]
- ED50 (oral purgative) [3]: >500 mg/kg

Compound: O=C(O)C(=O)OC[C@H]1O[C@@H](Oc2cccc3c2C(=O)c2c(O)cc(C(=O)O)cc2[C@@H]3[C@H]2c3cc(C(=O)O)cc(O)c3C(=O)c3c(O[C@@H]4O[C@H](CO)[C@@H](O)[C@H](O)[C@H]4O)cccc32)[C@H](O)[C@@H](O)[C@@H]1O [Sennoside E]
- ED50 (oral purgative) [3]: 13.5 mg/kg

Compound: O=P1(N(CCCl)CCCl)NCCCO1 (centres unmarked) [cyclophosphamide, reference compound]
- suppression of hemolytic plaque forming cells ([4]; intraperitoneal dose of 30 mg/kg): 52.5%

Compound: OCC1=C[C@@H](O)[C@@H]2C=CO[C@@H](O[C@@H]3O[C@H](CO)[C@@H](O)[C@H](O)[C@H]3O)[C@H]12 [Aucubin]
- half life [2]: about 42.5 minutes

Compound: O=C(O)c1cc(O)c2c(c1)[C@H]([C@H]1c3cc(C(=O)O)cc(O)c3C(=O)c3c(O[C@@H]4O[C@H](CO)[C@@H](O)[C@H](O)[C@H]4O)cccc31)c1cccc(O[C@@H]3O[C@H](CO)[C@@H](O)[C@H](O)[C@H]3O)c1C2=O [Sennoside A]
- ED50 (oral purgative) [3]: 13.5 mg/kg

Compound: O=C(O)c1cc(O)c2c(c1)[C@H]([C@H]1c3cc(CO)cc(O)c3C(=O)c3c(O[C@@H]4O[C@H](CO)[C@@H](O)[C@H](O)[C@H]4O)cccc31)c1cccc(O[C@@H]3O[C@H](CO)[C@@H](O)[C@H](O)[C@H]3O)c1C2=O [Sennoside C]
- ED50 (oral purgative) [3]: 13.3 mg/kg

Compound: O=C(O)c1cc(O)c2c(c1)[C@H]([C@@H]1c3cc(CO)cc(O)c3C(=O)c3c(O[C@@H]4O[C@H](CO)[C@@H](O)[C@H](O)[C@H]4O)cccc31)c1cccc(O[C@@H]3O[C@H](CO)[C@@H](O)[C@H](O)[C@H]3O)c1C2=O [Sennoside D]
- ED50 (oral purgative) [3]: 13.8 mg/kg

Compound: Emodin monoglucoside
- ED50 (oral purgative) [3]: 103.6 mg/kg

Compound: CC(C)=CCC/C(C)=C/CO [Geraniol]
- reduction of thymidylate synthase expression (thymidylate synthase): 2 fold
- reduction of thymidine kinase expression (thymidine kinase): 2 fold

Compound: O=C(O)C(=O)OC[C@H]1O[C@@H](Oc2cccc3c2C(=O)c2c(O)cc(C(=O)O)cc2[C@@H]3[C@@H]2c3cc(C(=O)O)cc(O)c3C(=O)c3c(O[C@@H]4O[C@H](CO)[C@@H](O)[C@H](O)[C@H]4O)cccc32)[C@H](O)[C@@H](O)[C@@H]1O [Sennoside F]
- ED50 (oral purgative) [3]: 16.1 mg/kg

Compound: C[C@@H]1O[C@@H](O[C@@H]2[C@@H](O)[C@H](OCCc3ccc(O)c(O)c3)O[C@H](CO)[C@H]2OC(=O)/C=C/c2ccc(O)c(O)c2)[C@H](O)[C@H](O)[C@H]1O [acetoside]
- suppression of hemolytic plaque forming cells ([4]; oral dose of 100 mg/kg): 18%

Compound: Cc1cc(O)c2c(c1)C(=O)c1cc(O)cc(O)c1C2=O [Emodin]
- effect on HT29 tumor cells (HT29 colon cancer cells): partial however significant effect
- concentrations inhibiting the growth of leukemic cells [5]: more than 5 microgram/ml
- LD50 (mice): 0.56 g/k″g
- ED50 (oral purgative) [3]: >500 mg/kg
- inhibition rate against murine melanoma (murine melanoma): 73%
- half-life [2]: approximately 227 min
- inhibition against mammary carcinoma [6]: 45%

Compound: C[C@H]1O[C@@H](O[C@H]2[C@@H](O)C[C@H](O[C@H]3[C@@H](O)C[C@H](O[C@H]4CC[C@@]5(C)[C@H](CC[C@@H]6[C@@H]5C[C@@H](O)[C@]5(C)[C@@H](C7=CC(=O)OC7)CC[C@]65O)C4)O[C@@H]3C)O[C@@H]2C)C[C@H](O)[C@@H]1O [Digoxin, reference compound]
- effect on HT29 tumor cells (HT29 colon cancer cells): partial however significant effect
- half life [2]: around 36 hours

Compound: O=C1c2cccc(O)c2C(=O)c2c(O)cc(CO)cc21 [Aloe-emodin]
- half-life [2]: about 78 min

Compound: CC1=CCC(C(C)(C)O)CC1 (stereo not drawn) [Alpha-terpineol]
- half life [2]: about 1.245 hours

Compound: CC[C@H](CC[C@@H](C)[C@H]1CC[C@H]2[C@@H]3CC=C4C[C@@H](O)CC[C@]4(C)[C@H]3CC[C@]12C)C(C)C [β-sitosterol]
- half life [2]: about 0.966 hours

Compound: CCC(=O)O[C@]1(C(=O)CCl)[C@@H](C)C[C@H]2[C@@H]3CCC4=CC(=O)C=C[C@]4(C)[C@@]3(F)[C@@H](O)C[C@@]21C [Clobetasol propionate]
- solubility in water [7]: insoluble in water

Compound: O=C(O)c1cc(O)c2c(c1)[C@@H]([C@H]1c3cc(C(=O)O)cc(O)c3C(=O)c3c(O[C@@H]4O[C@H](CO)[C@@H](O)[C@H](O)[C@H]4O)cccc31)c1cccc(O[C@@H]3O[C@H](CO)[C@@H](O)[C@H](O)[C@H]3O)c1C2=O [Sennoside B]
- ED50 (oral purgative) [3]: 13.9 mg/kg
